Consider four compounds from patent US20160061849A1, “LIPIDOMIC BIOMARKERS” (UNITHER VIROLOGY, LLC, priority 2014, published 2016).

SMILES strings stand for the structures.

For one test, the system named is Huh7.5 cells. Nature of the test: "Total lipid" fatty acid profiling (GCMS) of hepatoma cells treated with iminosugars. Type of test: cell-based, human. The note with it: uninfected state, antiviral concentrations, 4 days. As for the experimental part:
Methods for cell culture of replication-competent HCV in human hepatoma cells were essentially as described (Pollock, Nichita et al. 2010). Huh7.5 cells (Apath, LLC) were grown in DMEM supplemented with 100 U/ml penicillin, 100 μg/ml streptomycin, 2 mM L-glutamine, 1×MEM, and 10% FBS. All incubations were at 37° C./5% CO2. The effect of iminosugar treatment on cellular lipid profiles was determined for both uninfected and HCVcc-infected cells. In order to infect cells with HCV strain Jc1 (genotype 2a), Huh7.5 cells were incubated for 1 h in the presence of the virus at a multiplicity of infection (MOI)=0.02 using a viral stock of known titer. Cells were passaged for approximately 2 weeks to allow the infection to reach close to 100% of cells as determined by HCV core protein immunofluorescence, in order to avoid dilution of ‘infected’ lipidomic signatures by uninfected cells in partially infected cultures. Both HCV-infected and uninfected cells were then incubated in the presence or absence of iminosugars for 4 days, at which point they were harvested using trypsin/EDTA, washed 3 times in cold PBS, counted using trypan blue staining, and final cell pellets were resuspended in methanol:acetone (vol 1:1) prior to lipid profiling, A small volume of each sample was used for total protein estimation using the Bradford protein assay (Bio-Rad). […]

The subject of the next test is obese mice. The following applies: cited from earlier work.
Another test has as its system ER alpha glucosidases. The following applies: cited from earlier work.
A further test concerns PI3 kinase. The following applies: cited from earlier work.

Turning to `OC[C@@H]1[C@@H](O)[C@H](O)[C@@H](O)CN1CCCCCOCC12CC3CC(CC(C3)C1)C2` [AMP-DNJ, N-(5-adamantane-1-yl-methoxy-pentyl)-deoxynojirimycin], the “Mead acid component of the global fatty acid composition” value with Huh7.5 cells was “almost doubled”. Further, in the test with obese mice, the “fatty acid synthase activity” value is listed as “decreases fatty acid synthase activity”, the hepatic insulin sensitivity entry is listed as “improves hepatic insulin sensitivity” and the hepatic steatosis entry is on record as “abolishes hepatic steatosis”. In the case of `CCCCN1C[C@H](O)[C@@H](O)[C@@H](O)[C@H]1CO` [NB-DGJ, N—(N-butyl) deoxygalactojirimycin], the “inhibitory activity towards ER alpha glucosidases” value with ER alpha glucosidases is “no inhibitory activity”. On to `CCCCN1C[C@H](O)[C@@H](O)[C@H](O)[C@H]1CO` [NB-DNJ, N-butyl-deoxynojirimycin], for which the “inhibitory activity towards ER alpha glucosidases” value with ER alpha glucosidases is on record as “also inhibits glucosidase”. As for `CCCCC/C=C\C/C=C\C/C=C\C/C=C\CCCC(=O)O` [arachidonic acid], in the test with PI3 kinase, the “activation of PI3 kinase by insulin” value is on record as “blocks the activation”.
